Assay results as given in article PMC9105233, “The Nitrogen Atom of Vitamin B6 Is Essential for the Catalysis of Radical Aminomutases” (International Journal of Molecular Sciences, 2022).

Target: T1, lysine 5,6-aminomutase (5,6-LAM) (Acetoanaerobium sticklandii, UniProt E3PRJ4+E3PRJ5)
T1 construct: gene kamD
Details: dAdoCbl, NH4-EPPS pH 8.5, reaction 4 min, PLP analogue replacing PLP

T1 sequence (E3PRJ5 whole entry): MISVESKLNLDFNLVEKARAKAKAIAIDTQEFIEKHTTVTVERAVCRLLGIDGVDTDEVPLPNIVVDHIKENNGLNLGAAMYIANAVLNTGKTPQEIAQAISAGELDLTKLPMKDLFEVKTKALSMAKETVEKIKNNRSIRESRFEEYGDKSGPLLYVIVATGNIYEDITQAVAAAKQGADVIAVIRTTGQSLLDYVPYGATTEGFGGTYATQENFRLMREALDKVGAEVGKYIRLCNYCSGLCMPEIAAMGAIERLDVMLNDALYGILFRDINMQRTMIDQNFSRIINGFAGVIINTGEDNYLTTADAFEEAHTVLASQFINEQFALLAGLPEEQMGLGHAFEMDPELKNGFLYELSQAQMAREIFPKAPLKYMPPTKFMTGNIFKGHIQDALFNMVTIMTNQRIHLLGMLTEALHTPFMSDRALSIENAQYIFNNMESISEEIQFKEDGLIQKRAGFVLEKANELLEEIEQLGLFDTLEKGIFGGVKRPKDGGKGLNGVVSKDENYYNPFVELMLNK
T1 sequence (E3PRJ4 whole entry): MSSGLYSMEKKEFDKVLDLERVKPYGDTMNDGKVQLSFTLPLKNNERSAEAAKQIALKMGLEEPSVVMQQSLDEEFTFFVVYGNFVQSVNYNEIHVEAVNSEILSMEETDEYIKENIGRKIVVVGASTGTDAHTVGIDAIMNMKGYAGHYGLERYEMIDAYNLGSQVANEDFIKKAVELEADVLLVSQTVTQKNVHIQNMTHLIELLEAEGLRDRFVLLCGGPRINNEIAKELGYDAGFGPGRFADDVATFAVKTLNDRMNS

## Cc1ccc(COP(=O)(O)O)c(C=O)c1O [dAPLP]
  EPR of substrate-related radical with 4-thia-L-lysine: this spectrum obtained with dAPLP can be attributed to the corresponding S^•
